Data taken from US20020183388A1, “Use of retinoids plus histone deacetylase inhibitors to inhibit the growth of solid tumors” (priority 2001, published 2002).

Columns and labels:
[1] = tested on: LnCap human prostate cancer cells; assay: Growth assay of LnCap cells, cell number counted; type: cell-based; settings: 168 h, day 7, 1 μM retinoic acid, 1 μM retinol, 0.5 μM valproic acid, drugs added only once at time 0, read-out: inhibition of cell growth (FIG. 17)
Method: (§1) Data was plotted using Prism 3.0.
Cell number was counted on days 0, 3, 5, and 7. In this experiment, retinoic acid was employed alone at 1 μM. Retinol (vitamin A) was employed at 1 μM. Valproic acid, a histone deacetylase inhibitor, was employed at 0.5 μM alone. Combinations of these drugs were also used. All drugs were added only once, at time 0, in this experiment. […] Valproic acid (VPA) alone inhibited cell growth by approximately 40%. The combination of retinoic acid plus VPA inhibited cell growth by 75%, as did the combination of valproic acid plus retinol.

[2] = tested on: SCC-15 human head and neck cancer cells; assay: Growth assay of SCC-15 cells, cell number counted; type: cell-based; settings: SCC-15, 168 h, day 7, TSA 8 ng/ml, 1 μM retinoic acid, 1 μM retinol, drugs added only at time 0, read-out: inhibition of cell growth (FIG. 19)
Method: as §1
Cells were treated as indicated. Drugs were added only at time 0. Cell number was counted on days 0, 3, 5, and 7.
Cell number was counted on days 0, 3, 5, and 7. In this experiment, a low dose of TSA (8 ng/ml) was used alone or in combination with 1 μM retinoic acid or 1 μM retinol. Drugs were added only at time 0.

[3] = tested on: PC-3 human prostate cancer cells; assay: Growth assay of PC-3 cells, cell number counted; type: cell-based; settings: day 7; low dose TSA; drugs added only once on day 0
Method: as §1
Results of growth assays of the human prostate cancer cell line PC-3, are depicted in FIG. 20. Cells were treated as indicated. Cell number was counted on days 0, 3, 5, and 7. Drugs were added only once on day 0. TSA alone, retinoic acid alone, and retinol alone each inhibited cell growth by approximately 20% at day 7. The combination of low dose TSA plus retinoic acid or low dose TSA plus retinol inhibited cell growth by almost 60%.

[4] = tested on: MB-435 human breast cancer cells; assay: Growth assay of MB-435 cells by MTT; type: cell-based
Method: 96 well tissue culture dishes were seeded with 10^4 cells/well in 200 μL DME tissue culture medium supplemented with 10% fetal calf serum (FCS).
This assay detects color which is proportional to the number of cells present. Tissue culture medium containing drugs was removed and 200 µL of DME containing 2 mg/mL MTT ((3-4, 5-dimethyl thiazol-2yl) 2,5-diphenyltetrazolium bromide) was added to each well. Plates were incubated at 37° C. and 10% CO2 for 30 minutes. Medium containing MTT was then removed and the cells were washed once with PBS. Following removal of the PBS, 200 μL DMSO was added to each well and plates were placed on a rotating platform shaker for 5 minutes. Results were obtained by reading the absorbance at a wavelength of 550 nm using a spectrophotometer. Data was plotted using Prism 3.0.
Cells were plated in wells on day 0. Drugs were added on day 0 and again on days 3 and 5. The MTT assay was carried out on days 5 and 7. 1 μM of retinoic acid was used vs. 1 μM of liposomal retinoic acid (ATRA-IV). A very low dose (2 ng/ml) of trichostatin A (TSA) was also used. In addition, another inhibitor of histone deacetylases, 500 μM phenylbutyrate, was used. Various combinations of the drugs were also used in the growth assays.
Cells were treated as indicated.

[5] = tested on: HMEC normal human mammary epithelial cells (primary cultures); assay: Growth assay of HMEC cells, cell number counted; type: cell-based; settings: cells counted days 0, 3, 5, 7, 1 μM retinoic acid, 2 ng/ml TSA, 25 μM phenylbutyrate
Method: Also used were HMEC cells, which are cells from a normal human mammary epithelial cell line (primary cultures).
as §1
The drugs were added as described above, and cells were counted on days 0, 3, 5, and 7. […] However, in the body, most normal cells are not rapidly dividing as tumor cells are. […] This experiment was primarily performed in order to determine if the retinoid and histone deacetylase inhibitor combination worked similarly in tumor and normal epithelial cells.

[6] = tested on: SK-RC-01 human renal carcinoma cells; assay: Growth assay of SK-RC-01 cells, cell number counted; settings: for inhibition of cell growth (FIG. 7): retinoic acid
Method: Trichostatin A (Wako Pure Chemical Industries, Ltd., Osaka, Japan) was dissolved in 5 ml of EtOH to make a 1 mg/ml stock and sodium phenylbutyrate (NaPBA, Triple Crown America, Perkasie, Pa.) was prepared weekly from the powdered form to make a 25 mM stock solution. Cell lines were maintained in Minimal Essential Medium supplemented with 7% fetal calf serum, non-essential amino acids, and 1% penicillin/streptomycin (7% MEM).
(§2) 24 well tissue culture dishes were seeded with cells in 1 mL tissue culture medium (Clonetics) at 10^4 cells/well. Cells were incubated overnight at 37° C. in 10% CO2. Fresh medium containing drugs: Ethanol control (EtOH), 1 μM retinoic acid (RA), 2ng/mL trichostatin A (TSA), 25 μM sodium phenylbutyrate (PBa), and combinations of these were added the next day (day zero). Fresh medium containing drugs was added on days 3 and 5. Cells were trypsinized on days 0, 3, 5, and 7 and cell number was determined using a Z1 Coulter particle counter. […] Error bars are the standard error mean (SEM) of 4 replicate wells.
Cells were treated as indicated. The cell number was counted at day 7.
The cell number was counted on day 7.

[7] = tested on: SK-RC-45 human renal carcinoma cells; assay: Growth assay of SK-RC-45 cells, cell number counted
Method: Liposome encapsulated ATRA (ATRA-IV, Antigenics Inc., New York, N.Y.) was reconstituted from 100 mg vials with 50 ml of 0.9% saline. Powdered ATRA was dissolved in EtOH to make a 1 mM ATRA (Sigma, St. Louis, Mo.) stock which was stored at −80° C. Trichostatin A (Wako Pure Chemical Industries, Ltd., Osaka, Japan) was dissolved in 5 ml of EtOH to make a 1 mg/ml stock and sodium phenylbutyrate (NaPBA, Triple Crown America, Perkasie, Pa.) was prepared weekly from the powdered form to make a 25 mM stock solution. Cell lines were maintained in Minimal Essential Medium supplemented with 7% fetal calf serum, non-essential amino acids, and 1% penicillin/streptomycin (7% MEM). Empty liposomes (provided by Antigenics Inc.) were diluted in 10 ml of 0.9% saline to equal the same concentration of liposomes in the lipoATRA.
as §2
Cells were treated as indicated. The cell number was counted on day 7.
Cells were treated as indicated and cell number was counted.

[8] = tested on: SK-RC-39 human renal carcinoma cells; assay: Growth assay of SK-RC-39 cells, cell number counted; type: cell-based; settings: low dose TSA
Method: as §1
The cells were counted at day 7. A small amount of ethanol was added to the control cells, as a vehicle and solvent for the retinoic acid.
Culture conditions were as shown. […] The term EtOH indicates the control cells, treated with a very low amount of ethanol, the same amount used to dissolve retinoic acid.

[9] = tested on: SK-RC-39 cells (subcutaneous xenograft); assay: Human tumor xenograft model in nu/nu mice; type: in vivo
Method: Forty Swiss nu/nu mice were injected in the right flank subcutaneously with 5×10^6 SK-RC-39 cells that had been cultured in 7% MEM and then trypsinized. Four days later, four cohorts of 10 mice each began to receive one tail vein injection of TSA or control and one injection of ATRA-IV or control every Monday, Wednesday and Friday for the duration of the experiment. The four treatment groups were as follows: (1) PBS with 1% EtOH+empty liposomes; (2) LipoATRA (7.4-8.1 mg/kg)+PBS with 1% EtOH; (3) TSA ([…])+empty liposomes; and (4) TSA+LipoATRA. The study ended in the eighth week of treatment and at least six animals remained in each arm at the conclusion of the study and were considered evaluable. The animals tolerated the treatment well and gained weight throughout the treatment course. […] The tumor growth inhibition observed in the TSA+LipoATRA arm was much greater than that observed in the control arm. While the difference between the TSA+LipoATRA and the TSA+empty liposome arm was significant (FIG. 16), both of these treatments led to a very statistically significant difference in growth as compared to the control arm.

[10] = cells counted at day 7, low dose TSA
[11] = cells counted on day 7, 1 μM retinoic acid, low dose TSA

## CC1=C(/C=C/C(C)=C/C=C/C(C)=C/CO)C(C)(C)CCC1 [retinol]
[1]
  inhibition at 1 µM: ~27%
[2]
  inhibition at 1 µM: 35 to 40%
[3]
  inhibition of cell growth (FIG. 20): approximately 20%

## CCCC(CCC)C(=O)O [Valproic acid]
[1]
  inhibition at 0.5 µM: ~40%

## CC1=C(/C=C/C(C)=C/C=C/C(C)=C/C(=O)O)C(C)(C)CCC1 [retinoic acid, 3, 7 dimethyl-9-(2,6,6-trimethyl-1-cyclohenen-1-yl)-2,4,6,8,-nonatetraenoic acid]
[4]; Homo sapiens, 168 h, day 7, 1 μM retinoic acid, 1 μM ATRA-IV, 2 ng/ml TSA, 500 μM phenylbutyrate, drugs added days 0, 3, 5, read-out: inhibition of cell growth (FIG. 1)
  inhibition at 1 µM: ~20%
[5]; Homo sapiens, HMEC, read-out: inhibition of cell growth (FIG. 2)
  inhibition at 1 µM: ~50%
[1]
  inhibition at 1 µM: 25%
[2]
  inhibition at 1 µM: 35 to 40%
[3]
  inhibition of cell growth (FIG. 20): approximately 20%
[6]; Homo sapiens, 168 h, read-out: inhibition of cell growth (FIG. 12)
  inhibition at 1 µM: 12.5%
[6]; [10]
  inhibition of cell growth (FIG. 7): ~10%
[7]; Homo sapiens, 168 h, read-out: inhibition of cell growth (FIG. 8)
  inhibition at 1 µM: 55 to 60%

## CC(/C=C/C(=O)NO)=C\[C@@H](C)C(=O)c1ccc(N(C)C)cc1 [TSA, trichostatin A]
[4]; TSA 100 ng/ml
  growth inhibition, high dose TSA (FIG. 3): complete growth inhibition
[4]; day 7, 1 μM retinoic acid, 1 μM ATRA-IV, 2 ng/ml TSA, 500 μM phenylbutyrate, drugs added days 0, 3, 5
  inhibition of cell growth (FIG. 1): did not inhibit cell growth
[4]; days 3, 5, 7
  comparison of cell growth reduction between treatments (FIG. 3): better in reducing cell growth than phenylbutyrate
[5]
  inhibition of cell growth (FIG. 2): about 50%
[8]; cells counted at day 7, retinoic acid
  inhibition of cell growth (FIG. 6): 80-90%
[8]; cells counted on day 7, 1 μM retinoic acid
  inhibition of cell growth (FIG. 9): approximately 75%
[3]
  inhibition of cell growth (FIG. 20): approximately 20%
[9]; nu/nu mice, tail vein injection Mon/Wed/Fri for eight weeks
  toxicity, histologic analysis of the liver, lung, spleen and kidneys: lack of toxicity
[9]; tail vein injection Mon/Wed/Fri, eighth week of treatment, LipoATRA 7.4-8.1 mg/kg, TSA 34-41 μg/ml
  inhibition of tumor growth compared to control (FIG. 16): 38%
[6]; cells counted at day 7, TSA 100 ng/ml
  inhibition of cell growth, high dose TSA (FIG. 7): roughly 100%
[6]; [10]
  inhibition of cell growth (FIG. 7): 20-25%
[6]; [11]
  inhibition of cell growth (FIG. 12): approximately 25%
[6]; cells counted on day 7, high dose TSA
  inhibition of cell growth, high dose TSA (FIG. 12): greater than 95%
[7]; [11]
  inhibition of cell growth (FIG. 8): 60-65%
[7]; cells counted on day 7, TSA 100 ng/ml
  inhibition of cell growth, high dose TSA (FIG. 8): extremely effective in inhibiting kidney cancer cell growth
